Data as given in patent publication US20260347403A1, “FUNGICIDAL COMPOUND” (priority 2022, published 2026).
Numbered stars: 1 amine (or outer) side, 2 acyl side, 3 side chain; on linkers, the order of the positions; unused ones are H or OH. Bridge positions count the residues as written; N and C are the ends. Square brackets hold non-standard residues; d marks the D form. Peptide text beside a SMILES is read from it. * marks the point of attachment. X4 = NC(=O)C[C@@H](O)[C@@H](N[*:1])C(=O)[*:2]; d(aThr) = C[C@@H](O)[C@@H](N)C(=O)O; NMeF = CN[C@@H](Cc1ccccc1)C(=O)O; X3 = CC[C@@H](C)CCCCCCCCCCC(=O)*; dNMeN = CN[C@H](CC(N)=O)C(=O)O

Tests used:
Botryotinia fuckeliana = assay: Liquid culture, Botryotinia fuckeliana (Botrytis cinerea), Gray Mould, 3-4 days; type: cell-based; conditions: Table 3
Protocol: (§1) Mycelia fragments or conidia suspensions of a fungus, prepared either freshly from liquid cultures of the fungus or from cryogenic storage, were directly mixed into nutrient broth.
(§2) A stock solution for compound of Formula I(a) and Formula I(b) was produced in DMSO (max. 10 mg/ml), which was diluted with water plus 0.025% Tween®20 to produce a 10× concentrated sample and 10 μl of this solution was pipetted into a microtiter plate (96-well format). The nutrient broth containing the fungal spores/mycelia fragments was then added to give an end concentration of the tested compound. The test plates were incubated in the dark at 24 °C and 96% rh. The inhibition of fungal growth was determined photometrically after 2-7 days, depending on the pathosystem, and percent antifungal activity relative to the untreated check was calculated.
(§3) The effect of the test compound (Formula I(a), I(b) and Lipopeptin A) was tested against the following fungi under the conditions as outlined above and specifically herein below:
Botryotinia fuckeliana (Botrytis cinerea)/Liquid Culture (Gray Mould)
Conidia of the fungus from cryogenic storage were directly mixed into nutrient broth (Vogels broth). The inhibition of growth is determined photometrically 3-4 days after application.

Glomerella lagenarium = assay: Liquid culture, Glomerella lagenarium (Colletotrichum lagenarium), Anthracnose, 3-4 days; type: cell-based; conditions: Table 3
Protocol: as §1, §2, §3
Glomerella lagenarium (Colletotrichum lagenarium)/Liquid Culture (Anthracnose)
Conidia of the fungus from cryogenic storage were directly mixed into nutrient broth (PDB potato dextrose broth). The inhibition of growth was measured photometrically 3-4 days after application.

Mycosphaerella arachidis = assay: Liquid culture, Mycosphaerella arachidis (Cercospora arachidicola), early leaf spot, 4-5 days; type: cell-based; conditions: Table 3
Protocol: as §1, §2, §3
Mycosphaerella arachidis (Cercospora arachidicola)/liquid culture (early leaf spot) Conidia of the fungus from cryogenic storage were directly mixed into nutrient broth (PDB potato dextrose broth). The inhibition of growth was determined photometrically 4-5 days after application.

Zymoseptoria tritici = assay: Liquid culture, Zymoseptoria tritici (Septoria tritici), Septoria leaf blotch, 4-5 days; type: cell-based; conditions: Table 3
Protocol: as §1, §2, §3
Zymoseptoria tritici (Septoria tritici)/liquid culture (Septoria leaf blotch) Conidia of the fungus from cryogenic storage were directly mixed into nutrient broth (PDB potato dextrose broth). The inhibition of growth was determined photometrically 4-5 days after application.

[1] = system: Puccinia recondita f. sp. tritici; assay: Leaf disc/segment test on wheat, Puccinia recondita f. sp. tritici (Brown Rust), 7-9 days after application; type: in vivo; conditions: Table 5
Protocol: (§4) Leaf disks or leaf segments of various plant species were cut from plants grown in the greenhouse. The cut leaf disks, or segments were placed in multiwell plates (24-well format) onto water agar. The leaf disks were sprayed with a test solution before inoculation with the fungal spores. Compounds to be tested were prepared as DMSO solutions (max. 10 mg/ml) which were diluted to the appropriate concentration with water plus 0.025% Tween® 20 just before spraying. The inoculated leaf disks or segments were incubated under defined conditions (temperature, relative humidity, light, etc.) according to the respective test system. A single evaluation of disease level was carried out by visual evaluation 3-9 days days after inoculation, depending on the pathosystem as indicated below. Percent disease control relative to the untreated check leaf disks or segments was then calculated.
Puccinia recondita f. Sp. Tritici/Wheat/Leaf Disc (Brown Rust)
Wheat leaf segments cv. Kanzler were placed on agar in multiwell plates (24-well format) and sprayed with the formulated test compound diluted in water. The leaf disks were inoculated with a spore suspension of the fungus 1 day after application. The inoculated leaf segments were incubated at 19 °C and 75% rh under a light regime of 12 h light/12 h darkness in a climate cabinet and the activity of a compound was assessed as percent disease control compared to untreated when an appropriate level of disease damage appears in untreated check leaf segments (7-9 days after application).

Phaeosphaeria nodorum = assay: Leaf disc test on wheat, Phaeosphaeria nodorum (Glume Blotch), 5-7 days after application; type: in vivo, Phaeosphaeria nodorum (Septoria nodorum) on wheat; conditions: Table 5
Protocol: as §4
Phaeosphaeria Nodorum (Septoria nodorum)/Wheat/Leaf Disc (Glume Blotch)
Wheat leaf segments cv. Kanzler were placed on agar in a multiwell plate (24-well format) and sprayed with the formulated test compound diluted in water. The leaf disks were inoculated with a spore suspension of the fungus 2 days after application. The inoculated test leaf disks were incubated at 20 °C and 75% rh under a light regime of 12 h light/12 h darkness in a climate cabinet and the activity of a compound was assessed as percent disease control compared to untreated when an appropriate level of disease damage appears in untreated check leaf disks (5-7 days after application)

Pyrenophora teres = assay: Leaf disc preventative test on barley, Pyrenophora teres (Net Blotch), 5-7 days after application; type: in vivo; conditions: Table 5
Protocol: as §4
Pyrenophora teres/Barley/Leaf Disc Preventative (Net Blotch)
Barley leaf segments cv. Hasso were placed on agar in a multiwell plate (24-well format) and sprayed with the formulated test compound diluted in water. The leaf segments were inoculated with a spore suspension of the fungus 2 days after application. The inoculated leaf segments were incubated at 20 °C and 65% rh under a light regime of 12 h light/12 h darkness in a climate cabinet and the activity of a compound was assessed as disease control compared to untreated when an appropriate level of disease damage appears in untreated check leaf segments (5-7 days after application).

[2] = system: several phytopathogenic fungi; assay: Liquid culture assays, summary over the fungi tested; type: cell-based; conditions: Tables 2 and 3; relative to the other compounds
Protocol: as §1, §2
The effect of the test compound (Formula I(a), I(b) and Lipopeptin A) was tested against the following fungi under the conditions as outlined above and specifically herein below: […]

several fungal species = assay: Leaf disc or leaf segment tests, summary over the fungi tested; type: in vivo; conditions: Tables 4 and 5; relative to the other compounds
Protocol: as §4

[3] = system: ROS production induced by flg22; assay: Reactive Oxygen Species (ROS) burst assay with wheat leaf discs; conditions: Triticum aestivum, foliar, read-out: Fold change (peak ROS)

CC[C@@H](C)CCCCCCCCCCC(=O)N[C@H]1C(=O)N[C@@H](CC(=O)O)C(=O)N[C@H](CO)C(=O)N[C@@H](CO)C(=O)N(C)[C@H](CC(N)=O)C(=O)N(C)[C@@H](Cc2ccccc2)C(=O)N[C@H]([C@H](O)CC(N)=O)C(=O)N[C@H](CCC(=O)O)C(=O)O[C@@H]1C [Lipopeptin A, reference compound] (X3-[d(aThr)]D[dS]S[dNMeN][NMeF][X4][dE]; ester 1-C)
35%: % reduction of fungal growth ([1]; 200 ppm)
0%: % reduction fungal growth (Botryotinia fuckeliana; 0.41 ppm) | % reduction fungal growth (Botryotinia fuckeliana; 1.2 ppm) | % reduction fungal growth (Botryotinia fuckeliana; 3.7 ppm) | % reduction fungal growth (Botryotinia fuckeliana; 11 ppm) | % reduction fungal growth (Botryotinia fuckeliana; 33 ppm) | % reduction fungal growth (Botryotinia fuckeliana; 100 ppm) | % reduction fungal growth (Glomerella lagenarium; 0.41 ppm) | % reduction fungal growth (Glomerella lagenarium; 1.2 ppm) | % reduction fungal growth (Glomerella lagenarium; 3.7 ppm) | % reduction fungal growth (Glomerella lagenarium; 11 ppm) | % reduction fungal growth (Glomerella lagenarium; 33 ppm) | % reduction fungal growth (Glomerella lagenarium; 100 ppm) | % reduction fungal growth (Mycosphaerella arachidis; 0.41 ppm) | % reduction fungal growth (Mycosphaerella arachidis; 1.2 ppm) | % reduction fungal growth (Mycosphaerella arachidis; 3.7 ppm) | % reduction fungal growth (Mycosphaerella arachidis; 11 ppm) | % reduction fungal growth (Mycosphaerella arachidis; 33 ppm) | % reduction fungal growth (Mycosphaerella arachidis; 100 ppm) | % reduction fungal growth (Zymoseptoria tritici; 0.41 ppm) | % reduction fungal growth (Zymoseptoria tritici; 1.2 ppm) | % reduction fungal growth (Zymoseptoria tritici; 3.7 ppm) | % reduction fungal growth (Zymoseptoria tritici; 11 ppm) | % reduction fungal growth (Zymoseptoria tritici; 33 ppm) | % reduction of fungal growth ([1]; 0.82 ppm) | % reduction of fungal growth ([1]; 2.5 ppm) | % reduction of fungal growth ([1]; 7.4 ppm) | % reduction of fungal growth ([1]; 22 ppm) | % reduction of fungal growth ([1]; 67 ppm) | % reduction of fungal growth (Phaeosphaeria nodorum; 0.82 ppm) | % reduction of fungal growth (Phaeosphaeria nodorum; 2.5 ppm) | % reduction of fungal growth (Phaeosphaeria nodorum; 7.4 ppm) | % reduction of fungal growth (Phaeosphaeria nodorum; 22 ppm) | % reduction of fungal growth (Phaeosphaeria nodorum; 67 ppm) | % reduction of fungal growth (Phaeosphaeria nodorum; 200 ppm) | % reduction of fungal growth (Pyrenophora teres; 0.82 ppm) | % reduction of fungal growth (Pyrenophora teres; 2.5 ppm) | % reduction of fungal growth (Pyrenophora teres; 7.4 ppm) | % reduction of fungal growth (Pyrenophora teres; 22 ppm) | % reduction of fungal growth (Pyrenophora teres; 67 ppm) | % reduction of fungal growth (Pyrenophora teres; 200 ppm)
70%: % reduction fungal growth (Zymoseptoria tritici; 100 ppm)
less active: activity in liquid culture in words [2] | activity on leaf discs in words (several fungal species)

O=C(O)c1cc(Cl)nc(Cl)c1 [INA, 2.6-dichloro-isonicotinic acid, reference compound]
1.8: fold induction at 100 ppm [3]
